Literature values, collected in US9173850B2, “4-methylpyrazole formulations” (RAPTOR PHARMACEUTICALS INC., priority 2009, dated 2015).

System: ethanol intolerance
Details: doses below 10 mg/kg; subjects with reduced or absent ALDH activity who have consumed alcohol

Cc1cn[nH]c1 [Formulation 4-MP, 4-Methylpyrazole]
Effectiveness in treating ethanol intolerance or symptoms of aldehyde accumulation: effective
